The assay concerns the target T1, human FSH receptor (Homo sapiens, UniProt P23945).
T1 construct: expressed in transfected cells; host or cells: Chinese Hamster Ovary cells (K-1; ATCC), line rhFSHR-cLUC
T1 sequence (P23945 18-695): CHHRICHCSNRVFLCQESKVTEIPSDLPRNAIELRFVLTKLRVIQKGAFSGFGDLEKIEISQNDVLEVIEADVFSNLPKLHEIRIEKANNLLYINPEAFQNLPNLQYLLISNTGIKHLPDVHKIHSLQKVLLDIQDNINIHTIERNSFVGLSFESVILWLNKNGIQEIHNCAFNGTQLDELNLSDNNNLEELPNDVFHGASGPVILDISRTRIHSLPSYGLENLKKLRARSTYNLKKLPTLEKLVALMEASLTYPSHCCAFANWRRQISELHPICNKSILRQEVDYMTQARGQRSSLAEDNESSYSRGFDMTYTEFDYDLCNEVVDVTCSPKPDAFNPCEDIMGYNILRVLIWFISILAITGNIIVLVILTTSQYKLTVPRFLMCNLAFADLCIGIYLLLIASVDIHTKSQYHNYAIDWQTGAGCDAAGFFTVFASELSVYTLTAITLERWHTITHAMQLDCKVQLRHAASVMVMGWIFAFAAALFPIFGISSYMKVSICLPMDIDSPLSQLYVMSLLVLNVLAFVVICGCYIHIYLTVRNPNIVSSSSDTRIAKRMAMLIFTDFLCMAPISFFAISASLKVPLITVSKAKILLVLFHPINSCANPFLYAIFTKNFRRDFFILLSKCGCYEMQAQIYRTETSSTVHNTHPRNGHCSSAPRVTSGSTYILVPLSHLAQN
As to the kind of experiment: hFSHR CHO cAMP assay (rhFSHR-cLUC cells, FSH-stimulated cAMP, radioimmunoassay). Format: cell-based. Particulars: inhibition of cAMP produced by EC70 dose of FSH (4.85 nM); maximum concentration 50 μM. The text has this:
Minimum Essential Medium-Alpha (MEM-alpha), fetal bovine serum (FBS), penicillin, streptomycin, geneticin, trypsin-EDTA, Hanks' Balanced Salt Solution (no Calcium chloride, Magnesium chloride, Magnesium sulfate, or phenol red; Ca-Mg free HBSS) were purchased from Gibco BRL (Gaithersburg, Md.). The cells used for the FSH bioassay (rhFSHR-cLUC) were Chinese Hamster Ovary cells (K-1; ATCC) stably transformed with human FSH receptor (pSVK-FSHr) and a cAMP luciferase reporter gene (responsive CGα-180LUC). Follicle Stimulating Hormone (Metrodin; Fertinex) was purchased from Serono, Ltd. (Norwell, Mass.).
The rhFSHR-cLUC cell cultures were maintained in MEM-Alpha supplemented with 10% heat-inactivated FBS (HIFBS), 100 U/ml penicillin, 100 μg/mL streptomycin, and included 0.1 g/L geneticin for stable cell selection.
Forty-eight hours after the cells were plated in sterile 96-well culture plates (Corning, Corning, N.Y.) the spent media was removed and 50 μl assay media (modified growth media with 2% HIFBS) containing 2 mM IBMX (3-isobutyl-1-methyl-xanthine) was added to the cells. Compounds (25 μl) in the appropriate concentration were added followed 5 minutes later by an EC70 dose of FSH (25 μl; 160 ng/ml; 4.85 nM). After 10 minutes @ 22.5° C. (room temperature) the reaction was terminated by addition of 25 μL 0.5 N hydrochloric acid to each well. The amount of cAMP produced was measured by radioimmunoassay in a FlashPlate (DuPont, Boston, Mass.). To each flash plate 60 μL flash plate buffer was added followed by 40 μL acidified cell sample or cAMP standard, followed with the addition of 100 μl ^125l-cAMP trace. The FlashPlates were sealed, incubated overnight @ room temperature, and counted in a Packard TopCount (Packard Instrument Co., Meriden, Conn.). The cAMP radioimmunoassay results were calculated using DPM conversion and log-logit transformation of % binding (Excel program).
Test compounds were solubilized in 30% dimethyl sulfoxide (DMSO) at a concentration of 10 mM before diluting to appropriate concentrations in assay medium. The final DMSO concentration in the treated cells and in the control cells was 0.75%.
For individual experiments, a set of samples were tested including a vehicle control (assay buffer), a reference compound (hFSH) at a range of concentrations designed to elicit a minimal to maximal response, and several concentrations of test compounds together with an EC70 concentration of standard (hFSH challenge). Each compound was performed in duplicates for the primary evaluation and quadruplicates for the dose-ranging experiments. The cAMP radioimmunoassay raw data (pmol) were calculated to provide average pmol cAMP produced/ml and the percent inhibition was calculated as shown below.
% Inh=[1−(Avg.pmoltest compound+standard)/(Avg.pmolstandard)]×100
EC50 values were calculated from an analysis of the concentration-inhibition data using a linear analysis of the data transformed to a log-logit format.

Consider `C[C@@H](CN(CC(=O)NCc1ccc(CN)cc1)S(=O)(=O)c1ccc(-c2ccccc2Cl)cc1)c1ccccc1` [Compound 198], for which the response was half-maximal at 40 nM (EC50).

`Cc1ccccc1-c1ccc(S(=O)(=O)N(CC(=O)NCc2ccc(CN)cc2)C[C@@H](C)c2ccccc2)cc1` [Compound 215] had an EC50 of 80 nM.

These data come from patent US6583179B2, “Substituted aminoalkylamide derivatives as antagonists of follicle stimulating hormone” (Ortho-McNeil Pharmaceutical, Inc., priority 1999, dated 2003).
